This passage reports binding rates results from patent US20100075435A1, “BIOTINYLATED THYROXINE” (priority 2008, published 2010).

For the experiment, the system named is T4-streptavidin (Biotin-PEG4-T4 streptavidin conjugate) immobilized flow cell Fc3. The experiment in a line: SPR bivalent kinetic analysis of antibodies on T4-streptavidin immobilized flow cell (Biocore 3000, CM5 chip). The experiment is classed as binding. To be noted: comparison of antibodies 1 and 2. The method, then: The biotinylated thyroxine obtained in Example 1 (PEG n=4) (Biotin-PEG4-T4) (1.2 mg) was dissolved in 189.8 microliters of DMSO.
A 98 microliter quantity of 1 mg/mL of streptavidin and 1.33 microliters of the DMSO solution (5 mM) of Biotin-PEG4-T4 obtained above were dissolved in 0.67 microliters of HBSN. Here, the streptavidin:biotin ratio was 1:4 (mole ratio).
A Biocore 3000 (Biocore) was employed as the surface plasmon resonance (SPR) device. CM5 sensor chips were employed, and four flow cells (Fc 1 to 4) were prepared according to the following procedure. The flow rate was 10 microliters/min.
A flow of a 70 microliter quantity of a mixed solution of equal quantities of EDC (1-ethyl-3-(3-dimethylaminopropyl)carbodiimide) and NHS (N-hydroxysuccinimide) was run (7 minutes), after which a flow of a 70 microliter quantity of a solution of streptavidin in […] (0.2 mg/mL, pH 5.0) was run (7 minutes). Subsequently, a flow of ethanolamine was similarly run.
A flow of a 70 microliter quantity of mixed solution of equal quantities of EDC and NHS was run (7 minutes), after which a flow of a 70 microliter solution of T4-streptavidin in […] (0.2 mg/mL, pH 5.0) was run (7 minutes). […]
It was necessary to conduct interaction analysis at the minimum level of immobilization within the range over which the S/N ratio could be calculated. […]

Take `COC(=O)C(Cc1cc(I)c(Oc2cc(I)c(O)c(I)c2)c(I)c1)NC(=O)CCOCCOCCOCCOCCNC(=O)CCCCC1SCC2NC(=O)NC21` (stereo not shown) [Example 1, Biotinylated Thyroxine (PEG n=4)]: the binding rates entry was “about the same binding rates”.
